One assay deals with CDK2/CycE (Homo sapiens (Human), UniProt P24941). Briefly: CDK2/CycE kinase assay (TR-FRET). The format is biochemical. Conditions: 10 μM ATP; read-out: CDK2 avg (IC50 [mol/l]). The procedure, abridged:
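GST-tagged human CDK2 and GST-CycE from Sf9 cells (~130 ng/ml) were preincubated with compound for 15 min at 22 °C. Reaction with 10 μM ATP and 0.75 μM biotinylated peptide (final) ran 25 min at 22 °C, pH 8.0. Phospho-peptide was read by TR-FRET (665/620 nm ratio, anti-pRB antibody, Eu donor) and normalised to no-enzyme and no-inhibitor controls.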
On the technique in general: TR-FRET usually uses a lanthanide donor and a delayed reading to cut background.

Assay [1] relates to spindle assembly checkpoint. The experiment in a line: SAC-Formation - Nocodazole-Induced Assay. The format is cell-based. Conditions: Homo sapiens; HeLa cells, nocodazole 0.1 μg/ml, 24 h, phosphorylated histone H3 on serine 10. In outline:
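HeLa cells were given nocodazole at 0.1 μg/ml final together with compounds (0.005–20 μM, 0.5% DMSO) for 24 h at 37° C. Mitotic cells were counted by phospho-histone H3 Ser10 immunostaining, with cell number from HOECHST 33342, by high-content imaging. The loss of mitotic cells was fitted with a four-parameter Hill equation.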

Turning to `Cc1nsc(Nc2cnc(Br)cn2)c1C(=O)Nc1ccc(F)c(F)c1` [Example 77, 5-[(5-Bromopyrazin-2-yl)amino]-N-(3,4-difluorophenyl)-3-methyl-1,2-thiazole-4-carboxamide], the IC50 is more than 20 µM at CDK2/CycE and 0.018 µM in assay [1].
For `CCNc1cncc(Nc2snc(C)c2C(=O)Nc2ccc(F)c(F)c2)n1` [Example 78, N-(3,4-Difluorophenyl)-5-{[6-(ethylamino)pyrazin-2-yl]amino}-3-methyl-1,2-thiazole-4-carboxamide], the IC50 on CDK2/CycE is more than 20 µM; in assay [1], 0.39 µM.
As to `CCc1cnc(Nc2snc(C)c2C(=O)Nc2ccc(F)c(F)c2)cn1` [Example 79, N-(3,4-Difluorophenyl)-5-[(5-ethylpyrazin-2-yl)amino]-3-methyl-1,2-thiazole-4-carboxamide], the IC50 at CDK2/CycE was more than 20 µM; in assay [1] it was 0.14 µM.
For the molecule `CNC(=O)c1ccc(Nc2snc(C)c2C(=O)Nc2ccc(F)c(F)c2)nn1` [Example 80, 6-({4-[(3,4-Difluorophenyl)carbamoyl]-3-methyl-1,2-thiazol-5-yl}amino)-N-methylpyridazine-3-carboxamide], the IC50 was more than 20 µM at CDK2/CycE and 1.9 µM in assay [1].
For the molecule `Cc1nsc(Nc2cnc(C(F)(F)F)cn2)c1C(=O)Nc1ccc(F)c(F)c1` [Example 81, N-(3,4-Difluorophenyl)-3-methyl-5-{[5-(trifluoromethyl)pyrazin-2-yl]amino}-1,2-thiazole-4-carboxamide], the IC50 at CDK2/CycE is more than 20 µM; in assay [1] it was 0.0097 µM.
Turning to `Cc1nsc(Nc2ccc(C(F)(F)F)nn2)c1C(=O)Nc1ccc(F)c(F)c1` [Example 83, N-(3,4-Difluorophenyl)-3-methyl-5-{[6-(trifluoromethyl)pyridazin-3-yl]amino}-1,2-thiazole-4-carboxamide], the figures for the IC50 (on CDK2/CycE; in assay [1]) were more than 20 µM and 0.007 µM, respectively.
Turning to `COc1ccc(NC(=O)c2c(C)nsc2Nc2cncc(C(F)(F)F)n2)cn1` [Example 84, N-(6-methoxypyridin-3-yl)-3-methyl-5-{[6-(trifluoromethyl)pyrazin-2-yl]amino}-1,2-thiazole-4-carboxamide], the IC50 on CDK2/CycE was more than 20 µM; in assay [1], 0.058 µM.
As for `COc1ccc(NC(=O)c2c(C)nsc2Nc2cnc(C(F)(F)F)cn2)cn1` [Example 85, N-(6-methoxypyridin-3-yl)-3-methyl-5-{[5-(trifluoromethyl)pyrazin-2-yl]amino}-1,2-thiazole-4-carboxamide], the IC50 was more than 20 µM on CDK2/CycE and 0.0062 µM in assay [1].
As to `CCc1ccccc1NC(=O)c1c(C)nsc1Nc1cnc2cc(Cl)ccc2n1` [Example 86, 5-[(6-Chloroquinoxalin-2-yl)amino]-N-(2-ethylphenyl)-3-methyl-1,2-thiazole-4-carboxamide], the IC50 on CDK2/CycE is more than 20 µM; in assay [1], 0.53 µM.
`COc1ccc2nc(Nc3snc(C)c3C(=O)Nc3ccc(OC)nc3)sc2c1` [Example 87, 5-[(6-Methoxy-1,3-benzothiazol-2-yl)amino]-N-(6-methoxypyridin-3-yl)-3-methyl-1,2-thiazole-4-carboxamide]: the IC50 on CDK2/CycE is more than 20 µM; in assay [1], 0.59 µM.
As for `COc1ccc(NC(=O)c2c(C)nsc2Nc2nc3ccc(F)cc3s2)cn1` [Example 88, 5-[(6-Fluoro-1,3-benzothiazol-2-yl)amino]-N-(6-methoxypyridin-3-yl)-3-methyl-1,2-thiazole-4-carboxamide], the results for the IC50 (at CDK2/CycE; in assay [1]) were more than 20 µM and 0.82 µM, respectively.
On to `COc1ccc(NC(=O)c2c(C)nsc2Nc2nc3cccnc3s2)cn1` [Example 89, N-(6-Methoxypyridin-3-yl)-3-methyl-5-([1,3]thiazolo[5,4-b]pyridin-2-ylamino)-1,2-thiazole-4-carboxamide], for which the IC50 at CDK2/CycE was more than 20 µM; in assay [1], 1.4 µM.
In the case of `COc1ccc(NC(=O)c2c(C)nsc2Nc2nc3ccc(C)cc3s2)cn1` [Example 90, N-(6-Methoxypyridin-3-yl)-3-methyl-5-[(6-methyl-1,3-benzothiazol-2-yl)amino]-1,2-thiazole-4-carboxamide], the figures for the IC50 (on CDK2/CycE; in assay [1]) were more than 20 µM and 4.2 µM, respectively.
For `CCc1ccccc1NC(=O)c1c(C)nsc1Nc1nc(C(=O)OC)co1` [Example 91, Methyl 2-({4-[(2-ethylphenyl)carbamoyl]-3-methyl-1,2-thiazol-5-yl}amino)-1,3-oxazole-4-carboxylate], the IC50 at CDK2/CycE is more than 20 µM; in assay [1], 4.2 µM.
For `CCOC(=O)c1cnc(Nc2snc(C)c2C(=O)Nc2ccccc2CC)s1` [Example 92, Ethyl 2-({4-[(2-ethylphenyl)-carbamoyl]-3-methyl-1,2-thiazol-5-yl}amino)-1,3-thiazole-5-carboxylate], in that order: more than 20 µM and 1.2 µM.
For the molecule `COc1ccc(NC(=O)c2c(C)nsc2Nc2ncc(C(=O)N3CCOCC3)s2)cc1F` [Example 93, N-(3-Fluoro-4-methoxyphenyl)-3-methyl-5-{[5-(morpholin-4-ylcarbonyl)-1,3-thiazol-2-yl]amino}-1,2-thiazole-4-carboxamide], the IC50 on CDK2/CycE is more than 20 µM; in assay [1] it was 1.4 µM.
For `COc1ccc(NC(=O)c2c(C)nsc2Nc2cnc3ccccc3n2)cn1` [Example 94, N-(6-Methoxypyridin-3-yl)-3-methyl-5-(quinoxalin-2-ylamino)-1,2-thiazole-4-carboxamide] the same measures were more than 20 µM and 0.081 µM.
Take `CCOC(=O)c1sc(Nc2snc(C)c2C(=O)Nc2ccc(Cl)c(F)c2)nc1C` [Example 95, Ethyl 2-({4-[(4-chloro-3-fluoro-phenyl)carbamoyl]-3-methyl-1,2-thiazol-5-yl}amino)-4-methyl-1,3-thiazole-5-carboxylate]: the IC50 is more than 20 µM on CDK2/CycE and 0.26 µM in assay [1].

The record behind these values is US9682995B2, “Amino-substituted isothiazoles” (BAYER PHARMA AKTIENGESELLSCHAFT, priority 2013, dated 2017).
